Literature values as cited in patent EP1757570A1, “Process for obtaining a purified hydrofluoroalkane with 2 carbon atoms” (Solvay SA, priority 2005, dated 2007).
Read-outs that look alike come from different tables or passages of the source.

Compound | Half life (65 °C) | Half life (82 °C) | Half life (120 °C) | Half life (73 °C, in solution in benzene) | Half life (92 °C, in solution in benzene) | Half life (131 °C, in solution in benzene)
CC(C)(C#N)N=NC(C)(C)C#N [AIBN, 2,2'-azobis(isobutyronitrile)] | 10 h | 1 h | 0.017 h | – | – | –
O=C(OOC(=O)c1ccccc1)c1ccccc1 [DBP, dibenzoylperoxide] | – | – | – | 10 h | 1 h | 0.017 h
